# In patent US20240254089A1, “MODULATORS OF MAS-RELATED G-PROTEIN RECEPTOR X4 AND RELATED PRODUCTS AND METHODS” (ESCIENT PHARMACEUTICALS, INC., priority 2020, published 2024):
# pIC50: −log10 of the molar value. Where two headings read alike, the source gives them in different places.
# Target: T1, human MRGPR X4 (Homo sapiens, UniProt Q96LA9)
# T1 construct: expressed in transfected cells
# Assay: MRGPR X4 antagonist activity, IP-One Gq HTRF assay in stably transfected HEK cells
# Format: cell-based
# Procedure, shortened: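 Human MRGPR X4-expressing HEK cells, 20,000/well, were incubated with compound (10-point curve, 10 uM top, 1:3 dilutions) plus agonist (10 μM bilirubin, 20 μM deoxycholic acid or 100 μM conjugated bilirubin) in Tris/NaCl/LiCl buffer, pH 8, for 1 h at 37 °C, then 30 min at room temperature. IP-1 was read by HTRF, and IC50 was taken from the HTRF ratio.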
# [1] = versus 20 μM deoxycholic acid agonist, HEK cells expressing human MRGPR X4, read-out: MRGPRX4 Antagonist Activity
# T1 sequence (Q96LA9 whole entry): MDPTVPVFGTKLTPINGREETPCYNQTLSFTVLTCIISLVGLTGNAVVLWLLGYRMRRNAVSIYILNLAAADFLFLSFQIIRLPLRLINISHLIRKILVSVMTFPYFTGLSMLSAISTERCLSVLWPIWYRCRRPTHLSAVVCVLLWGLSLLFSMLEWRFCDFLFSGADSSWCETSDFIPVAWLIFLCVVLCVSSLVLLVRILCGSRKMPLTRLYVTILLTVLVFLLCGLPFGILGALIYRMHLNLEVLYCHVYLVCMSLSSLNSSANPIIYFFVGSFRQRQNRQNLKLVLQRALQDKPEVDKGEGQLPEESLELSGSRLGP
SMILES,pIC50,pIC50 [1]
COc1ccccc1CCNC(=O)c1cn(Cc2ccc(Cl)cc2)c2ccccc12 [Compound 177],6.30 to 7.00,–
O=C(NCCc1nnc2ccccn12)c1nn(Cc2ccc3c(c2)CCC3)c2ccccc12 [Compound 494],> 7.00,–
N#Cc1cccc2c1c(C(=O)NCCc1nnc3ccccn13)nn2Cc1ccc(Cl)cc1 [Compound 546],6.30 to 7.00,–
COc1cccc(S(=O)(=O)NC(=O)c2nn(Cc3ccc(OC(F)F)cc3)c3ccccc23)c1 [Compound 285],–,5.60 to 6.00
COc1ccc(-c2nc(Cn3nc(C(=O)NCCc4nnc5ccccn45)c4ccccc43)cs2)cc1 [Compound 499],6.00 to 6.30,–
Cn1ccc(CCNC(=O)c2nn(Cc3ccc(Cl)cc3)c3ccccc23)n1 [Compound 48],6.30 to 7.00,–
O=C(NCCc1nnc2ccccn12)c1nn(Cc2ccc(C(F)(F)F)cc2)c2ccccc12 [Compound 14],> 7.00,–
Cc1ccc(Cn2nc(C(=O)NCCc3nc4c(s3)CCCC4)c3ccccc32)cc1 [Compound 28],6.30 to 7.00,–
CC(C)c1cc(CNC(=O)c2nn(Cc3ccc(Cl)cc3)c3ccccc23)on1 [Compound 422],< 5.60,–
O=C(NCC1CCS(=O)(=O)CC1)c1nn(Cc2ccc(Cl)cc2)c2ccccc12 [Compound 390],–,< 5.60
Cc1occc1Cn1nc(C(=O)NCCc2nnc3ccccn23)c2ccccc21 [Compound 520],< 5.60,–
O=C(NCCn1cc(CN2CCS(=O)(=O)CC2)nn1)c1nn(Cc2ccc(Cl)cc2)c2ccccc12 [Compound 147],–,< 5.60
COc1cc(Cl)ccc1Cn1nc(C(=O)NCCc2nc3c(s2)CCCC3)c2ccccc21 [Compound 123],< 5.60,–
O=C(NCCc1nnc2ccccn12)c1nn(Cc2ccc(C(F)(F)F)cc2Cl)c2ccccc12 [Compound 553],> 7.00,–
O=C(NS(=O)(=O)Cc1cccnc1)c1nn(Cc2ccc(Cl)cc2)c2ccccc12 [Compound 310],–,< 5.60
O=C(NCCc1ccno1)c1nn(Cc2ccc(Cl)cc2)c2ccccc12 [Compound 90],6.00 to 6.30,–
O=C(NCCn1nnc2ccccc21)c1nn(Cc2ccc(Cl)cc2)c2ccccc12 [Compound 361],> 7.00,–
CC(=O)c1ccc(Cn2nc(C(=O)NCCc3nnc4ccccn34)c3ccccc32)cc1 [Compound 413],6.30 to 7.00,–
O=C(NCCc1nc2c(s1)CCCC2)c1nn(Cc2ccccc2Cl)c2ccccc12 [Compound 95],5.60 to 6.00,–
N#Cc1ccc(Cn2cc(C(=O)NCCc3cccnc3)c3ccccc32)cc1 [Compound 193],6.00 to 6.30,–
Cc1cc(Cn2nc(C(=O)NCCc3cccnc3)c3ccccc32)ccc1Cl [Compound 32],6.30 to 7.00,–

SMILES,pIC50,pIC50 [1]
O=C(NCCc1nc2c(s1)CCCC2)c1nn(Cc2cccc(F)c2)c2ccccc12 [Compound 81],6.00 to 6.30,–
O=C(NCCc1nc2ccccc2[nH]1)c1nn(Cc2ccc(Cl)cc2)c2ccccc12 [Compound 357],> 7.00,–
O=C(O)c1nn(Cc2ccc(Cl)cc2)c2cccc(F)c12 [Compound 327],< 5.60,–
O=C(NCCc1ccc(Cl)c(F)c1)c1cn(Cc2ccccc2F)c2ccccc12 [Compound 224],< 5.60,–
O=C(NCCc1nnc2ccccn12)c1nn(CCCC2CCCC2)c2ccccc12 [Compound 487],6.30 to 7.00,–
Cc1cccn2cc(CNC(=O)c3nn(Cc4ccc(Cl)cc4)c4ccccc34)nc12 [Compound 421],6.00 to 6.30,–
Cc1ccc(CNC(=O)c2nn(Cc3ccc(Cl)cc3)c3ccccc23)nn1 [Compound 334],6.00 to 6.30,–
CC(C)c1ccc(Cn2nc(C(=O)NCCc3nc4c(s3)CCCC4)c3ccccc32)cc1 [Compound 108],5.60 to 6.00,–
O=C(NCCc1c[nH]c2ccc(Cl)cc12)c1nn(Cc2ccc(Cl)cc2)c2ccccc12 [Compound 396],< 5.60,–
COc1cccc(CCNC(=O)c2cn(Cc3ccc(Cl)cc3)c3ccccc23)c1 [Compound 164],6.30 to 7.00,–
O=C(NCCc1cccnc1)c1cn(Cc2cccc(OC(F)(F)F)c2)c2ccccc12 [Compound 186],6.00 to 6.30,–
COc1ccccc1CCCn1nc(C(=O)NCCc2nnc3ccccn23)c2ccccc21 [Compound 506],–,< 5.60
COc1ccc(CCNC(=O)c2nn(Cc3ccc(Cl)cc3)c3ccccc23)cc1OC [Compound 343],6.00 to 6.30,–
COc1ccccc1OCCn1nc(C(=O)NCCc2nnc3ccccn23)c2ccccc21 [Compound 486],6.00 to 6.30,–
N#Cc1ccc(Cn2nc(C(=O)NCCc3nnc4ccccn34)c3ccccc32)cn1 [Compound 464],5.60 to 6.00,–
O=C(NCCc1nnc2ccccn12)c1nn(Cc2nc3ccccc3o2)c2ccccc12 [Compound 438],6.30 to 7.00,–
Cc1ccc(Cn2nc(C(=O)NCCc3c[nH]nn3)c3ccccc32)cc1 [Compound 73],6.00 to 6.30,–
COc1ccccc1CCNC(=O)c1cn(Cc2cccc(F)c2)c2ccccc12 [Compound 221],5.60 to 6.00,–
Cc1ccc(Cn2cc(C(=O)NCCc3nc(C)cs3)c3ccccc32)cc1 [Compound 159],6.30 to 7.00,–
COc1cccc(Cn2nc(C(=O)NCCc3nnc4ccccn34)c3ccccc32)n1 [Compound 434],5.60 to 6.00,–
Cc1ccc(CS(=O)(=O)NC(=O)c2nn(Cc3ccc(Cl)cc3)c3ccccc23)cc1 [Compound 264],–,6.00 to 6.30

SMILES,pIC50,pIC50 [1]
Cn1cc(C(=O)Cn2nc(C(=O)NCCc3nnc4ccccn34)c3ccccc32)cn1 [Compound 467],6.30 to 7.00,–
O=C(Nc1ccc2cccnc2c1)c1nn(Cc2ccc(Cl)cc2)c2ccccc12 [Compound 111],5.60 to 6.00,–
O=C(NCCc1c[nH]c2ccc(O)cc12)c1nn(Cc2ccc(Cl)cc2)c2ccccc12 [Compound 338],6.30 to 7.00,–
COc1ncccc1CCNC(=O)c1cn(Cc2ccc(Cl)cc2)c2ccccc12 [Compound 155],6.30 to 7.00,–
O=C(Nc1cnc2ccccc2c1)c1nn(Cc2ccc(Cl)cc2)c2ccccc12 [Compound 134],5.60 to 6.00,–
Cc1cc(Cl)ccc1Cn1nc(C(=O)NCCc2nnc3ccccn23)c2ccccc21 [Compound 554],> 7.00,–
O=C(NCCc1nnc2n1CCCC2)c1nn(Cc2ccc(Cl)cc2)c2ccccc12 [Compound 25],> 7.00,–
O=C(NCCc1ccncc1)c1nn(Cc2ccc(Cl)cc2)c2ccccc12 [Compound 31],6.30 to 7.00,–
O=C(Nc1cncnc1)c1nn(Cc2ccc(Cl)cc2)c2ccccc12 [Compound 133],5.60 to 6.00,–
CCOc1ccc(CCNC(=O)c2nn(Cc3ccc(Cl)cc3)c3ccccc23)cc1 [Compound 365],< 5.60,–
O=C(NS(=O)(=O)c1cccc(OC(F)(F)F)c1)c1nn(Cc2ccc(OC(F)F)cc2)c2ccccc12 [Compound 281],–,5.60 to 6.00
Cc1ccc(Cn2nc(C(=O)NCCc3ccco3)c3ccccc32)cc1 [Compound 122],5.60 to 6.00,–
O=C(NCCc1nnc2ccccn12)c1nn(Cc2ccc(Cl)cc2)c2cccc(Cl)c12 [Compound 547],6.00 to 6.30,–
Cc1ccc(Cn2cc(C(=O)NCCc3ccncc3)c3ccccc32)cc1 [Compound 172],6.30 to 7.00,–
O=C(NCCCc1ccc(Cl)c(F)c1)c1cn(Cc2ccc(Cl)cc2)c2ccccc12 [Compound 204],5.60 to 6.00,–
Cc1cccn2c(CCNC(=O)c3nn(Cc4ccc(Cl)cc4)c4ccc(F)cc34)nnc12 [Compound 1],> 7.00,–
Cc1ccc(Cn2nc(C(=O)NCCc3ccccn3)c3ccccc32)cc1 [Compound 63],6.30 to 7.00,–
CC1(c2cn(CCNC(=O)c3nn(Cc4ccc(Cl)cc4)c4ccccc34)nn2)COC1 [Compound 139],6.30 to 7.00,–
N#Cc1ccccc1Cn1nc(C(=O)NCCc2nnc3ccccn23)c2ccccc21 [Compound 409],5.60 to 6.00,–
